Measured values published in patent US9138466B2, “Factor H for transplantation” (Baxter International Inc., priority 2013, dated 2015).
Values joined by “and” are separate entries in the source; they are usually repeats but may differ in a detail not shown here. Equal values may be shown once. Read-outs that look alike come from different tables or passages of the source. Marks after values point to notes of the source that are not given here.

Experiments:
Format in all cases: in vivo
[1] = test system: collagen antibody-induced arthritis in Balb C mice; assay: Mouse CAIA, hind paw volume / footpad swelling (Example 4); set-up: Mean Disease Burden / Hind Limb Volume, Mean Diff. / Total Disease, Mean Diff.: unit not given here; conditions: for Total Footpad Thickness, Day of Study 8: day 8; for Total Footpad Thickness, Day of Study 11: day 11; for Total Footpad Thickness, Day of Study 12: day 12; for Total Footpad Thickness, Day of Study 13: day 13; for Total Footpad Thickness, Day of Study 15: day 15; for Total Footpad Thickness, Day of Study 19: day 19; for Total Footpad Thickness, Day of Study 22: day 22; for % Disease Suppression: footpad thickness AUC vs vehicle; for Total Disease Burden (AUC): footpad thickness days 8-22, in mL·day
[2] = test system: collagen antibody-induced arthritis in Balb C mice; assay: Mouse CAIA, clinical score (Example 4); set-up: key to Mean Maximum Clinical Score: scored 0 to 60, sum of 4 limbs
[3] = test system: collagen antibody-induced arthritis in Balb C mice; assay: Mouse CAIA, histopathology of hind limbs (ankle, H & E) (Example 4)
[4] = Mouse CAIA, body weight and tolerability (Example 4)
Method: Balb C mice (n=10 per cohort) were used to determine the efficacy of Factor H (FH) during transplant rejection. The mice were treated with ArthritoMAb (anti-collagen) antibody cocktail (2 mg, i.v.) on day 1, followed 7 days later with an injection of LPS (50 μg, i.p.). On day 8, hind paw volumes were measured for each animal and distributed to various treatment groups.
Hind paw volumes were measured on day 8, 11, 12, 13, 15, 19 and 22 (endpoint). The age at start date was 7 to 9 weeks. Body weights were measured bi-weekly to the endpoint (Table 4). At the endpoint, tissue samples were processed for histology and submitted to a pathologist for independent analysis. Sampling 1 was performed at the endpoint. The hind limbs were preserved in 10% formalin. Sampling 2 was performed at the endpoint for group 4 animals. Blood was collected by terminal cardiac puncture. The blood was processed for anti-coagulant. The kidneys were additionally preserved in formalin and followed with 70% EtOH. Samples were scored for inflammation, pannus (granulation tissue), cartilage damage, bone resorption and exostosis (Table 5).

[5] = Dunnett's Multiple Comparison Test, G1 vehicle vs treatment
[6] = Dunnett's Multiple Comparison Test, vehicle vs treatment
[7] = Dunn's Multiple Comparison Test, G1 vehicle vs treatment
[8] = ankle, group mean, score 0 = normal to 5 = severe
[9] = ankle, individual animal, score 0 = normal to 5 = severe
[10] = ankle, individual animal, score 0 = normal to 5 = severe, listed as Group 2

C[C@@H]1C[C@H]2[C@@H]3CCC4=CC(=O)C=C[C@]4(C)[C@@]3(F)[C@@H](O)C[C@]2(C)[C@@]1(O)C(=O)CO [Dexamethasone]
Mean Disease Burden ([1]; AUC of combined footpad volume over baseline, days 8 to 22, group mean, vehicle 1.93): −0.32*** | Total Disease, 95% CI of diff [1, 5]: 1.50 to 3.00 | Total Disease, Mean Diff. [1, 5]: 2.25 | Total Disease, Summary [1, 5]: *** (***= P < 0.001) | Total Disease, q [1, 5]: 7.36 | Hind Limb Volume, 95% CI of diff [1, 6]: 0.09687 to 0.2080 | Hind Limb Volume, Mean Diff. [1, 6]: 0.1524 | Hind Limb Volume, Summary [1, 6]: *** (***= P < 0.001) | Hind Limb Volume, q [1, 6]: 6.877 | Total Footpad Thickness, Day of Study 8 ([1]; group mean, n 10): 0.35 mL | Total Footpad Thickness, Day of Study 8 ([1]; individual animals (A# 1-10)): 0.42 mL and 0.39 mL (2×) and 0.37 mL and 0.35 mL and 0.34 mL and 0.33 mL and 0.31 mL (2×) and 0.3 mL | Total Footpad Thickness, Day of Study 11 ([1]; group mean, n 10): 0.32 mL | Total Footpad Thickness, Day of Study 11 ([1]; individual animals (A# 1-10)): 0.30 mL and 0.34 mL and 0.32 mL (3×) and 0.3 mL (3×) and 0.35 mL and 0.31 mL | Total Footpad Thickness, Day of Study 12 ([1]; group mean, n 10): 0.34 mL | Total Footpad Thickness, Day of Study 12 ([1]; individual animals (A# 1-10)): 0.34 mL (4×) and 0.28 mL and 0.35 mL and 0.32 mL and 0.31 mL and 0.39 mL and 0.37 mL | Total Footpad Thickness, Day of Study 13 ([1]; group mean, n 10): 0.33 mL | Total Footpad Thickness, Day of Study 13 ([1]; individual animals (A# 1-10)): 0.31 mL (2×) and 0.3 mL (2×) and 0.36 mL and 0.38 mL (2×) and 0.33 mL and 0.35 mL and 0.29 mL | Total Footpad Thickness, Day of Study 15 ([1]; group mean, n 10): 0.31 mL | Total Footpad Thickness, Day of Study 15 ([1]; individual animals (A# 1-10)): 0.37 mL and 0.33 mL and 0.29 mL (3×) and 0.38 mL and 0.26 mL and 0.3 mL (2×) and 0.27 mL | Total Footpad Thickness, Day of Study 19 ([1]; group mean, n 10): 0.34 mL | Total Footpad Thickness, Day of Study 19 ([1]; individual animals (A# 1-10)): 0.35 mL (4×) and 0.28 mL and 0.3 mL and 0.38 mL and 0.37 mL and 0.32 mL and 0.0 mL | Total Footpad Thickness, Day of Study 22 ([1]; group mean, n 10): 0.31 mL | Total Footpad Thickness, Day of Study 22 ([1]; individual animals (A# 1-10)): 0.39 mL and 0.42 mL and 0.3 mL and 0.32 mL and 0.29 mL (2×) and 0.35 mL (2×) and 0.31 mL and 0.25 mL | % Disease Suppression ([1]; group mean, n 10): 116.49% | % Disease Suppression ([1]; individual animals (A# 1-10)): 139.7% and 129.0% and 162.5% and 125.0% and 114.5% and 102.9% and 104.7% and 87.3% and 96.1% and 101.3% | Total Disease Burden (AUC) ([1]; group mean, n 10): −0.32 | Total Disease Burden (AUC) ([1]; individual animals (A# 1-10)): −0.77 and −0.51 and −1.21 and −0.54 and −0.28 and −0.06 and −0.09 and 0.25 and 0.10 and −0.02 | Maximum Δ Mean Volume ([1]; mean combined foot pad volume, day 8 vs median day of maximal swelling, vehicle 0.21): 0.03*** ml | % Disease Suppression (vs Vehicle) ([1]; percent decrease in total disease burden relative to vehicle): 116.5% | Clinical Score, Difference in rank sum [2, 7]: 23.95 | Clinical Score, Summary [2, 7]: *** (***= P < 0.001) | Clinical score, Mean ([2]; day 8, group mean n=10): 4.00 | Clinical score ([2]; day 8, individual animal): 5 (2×) and 10 (3×) and 0 (5×) | Clinical score, Mean ([2]; day 11, group mean n=10): 0.10 | Clinical score ([2]; day 11, individual animal): 0 (9×) and 1 | Clinical score, Mean ([2]; day 12, group mean n=10): 5.70 | Clinical score ([2]; day 12, individual animal): 0 (3×) and 10 (4×) and 5 (2×) and 7 | Clinical score, Mean ([2]; day 13, group mean n=10): 6.00 | Clinical score ([2]; day 13, individual animal): 0 (4×) and 10 (6×) | Clinical score, Mean ([2]; day 15, group mean n=10): 0.00 | Clinical score ([2]; day 15, individual animal): 0 | Clinical score, Mean ([2]; day 19, group mean n=10): 0.00 | Clinical score ([2]; day 19, individual animal): 0 | Clinical score, Mean ([2]; day 22, group mean n=10): 0.00 | Clinical score ([2]; day 22, individual animal): 0 | Day (of Max Clin Score), Mean ([2]; group line 'Mean', day of study): 12.00 | Max Clin Score, Mean ([2]; group mean n=10): 9.20 | Max Clin Score ([2]; individual animal): 5 and 10 (8×) and 7 | Day (of Max Clin Score) ([2]; individual animal, day of study): 8 (4×) and 13 (2×) and 12 (4×) | Mean Maximum Clinical Score ([2]; scored from 0 to 60, sum of 4 limbs, vehicle 45.4): 9.2*** | Score From H & E, Bone Resorption [3]: 0.8 ± 0.9 | Cartilage, Difference in rank sum [3, 7]: 9.25 | Composite, Difference in rank sum [3, 7]: 14.05 | Composite, Summary [3, 7]: * (*= P < 0.05) | Exostosis, Difference in rank sum [3, 7]: 13.1 | Exostosis, Summary [3, 7]: ** (**= P < 0.01) | Inflammation, Difference in rank sum [3, 7]: 14.95 | Inflammation, Summary [3, 7]: ** (**= P < 0.01) | Pannus, Difference in rank sum [3, 7]: 11.4 | Composite Histopathaligy Score ([3]; ankle, group mean): 0.2 ± 0.1 | Score From H & E, Cartilage Damage [3, 8]: 0.9 ± 0.8 | Score From H & E, Inflammation [3, 8]: 0.3 ± 0.1 | Score From H & E, Pannus [3, 8]: 0.1 ± 0.1 | Score From H & E, Periosteal Exostotic Changes [3, 8]: 0.9 ± 0.8 | Score From H & E, Bone Resorption [3, 9]: 0 | Score From H & E, Cartilage Damage [3, 9]: 0 | Score From H & E, Periosteal Exostotic Changes [3, 9]: 0 | Score From H & E, Inflammation [3, 10]: 0 (9×) and 1 | Score From H & E, Pannus [3, 10]: 1 and 0 (9×) | Composite Histopathaligy Score ([3]; ankle, individual animal, listed as Group 2): 3 and 0 (8×) and 1 | Bone Resorption ([3]; histopathology summary, graded 1-5, vehicle 0.6 ± 0.3): 0 ± 0^ns | Pannus ([3]; histopathology summary, graded 1-5, vehicle 1.0 ± 0.3): 0.1 ± 0.1^ns | Inflammation ([3]; histopathology summary, graded 1-5, vehicle 2.0 ± 0.5): 0.1 ± 0.1 | Exostosis ([3]; histopathology summary, graded 1 to 5, vehicle 2.6 ± 0.5): 0 ± 0 | Cartilage Damage ([3]; histopathology summary, vehicle 0.5 ± 0.2): 0 ± 0^ns | Composite Score ([3]; histopathology summary, vehicle 6.7 ± 1.7): 0.2 ± 0.1 | Body Weight, Wt (g), Mean ([4]; day 1, group mean n=10, before dosing start (day 8)): 17.7 g | Body Weight, Wt (g), Mean ([4]; day 5, group mean n=10, before dosing start (day 8)): 17.9 g | Body Weight, Wt (g), Mean ([4]; day 8, group mean n=10): 16.3 g | Body Weight, Wt (g), Mean ([4]; day 12, group mean n=10): 16.8 g | Body Weight, Wt (g), Mean ([4]; day 15, group mean n=10): 16.7 g | Body Weight, Wt (g), Mean ([4]; day 19, group mean n=10): 16.5 g | Body Weight, Wt (g), Mean ([4]; day 22, group mean n=10): 16.5 g | Mean Body Weigh at Nadir ([4]; lowest group mean body weight as % change from day 1, vehicle −8.0%): −7.7%
